In PubChem BioAssay AID206 (DTP/NCI, 2004):
Results filed as inconclusive are left out.

Tested on: nude mice, HT29 intrarenal xenograft, tumor weight T/C
Test: NCI In Vivo Anticancer Drug Screen. Data for tumor model HT29;CX-1 Human Adenocarcinoma (MER+) (intrarenal inoculation) in NU/NU Swiss (nude) mice
Settings: endpoint: mean tumor weight change, higher = larger tumour
Method in brief: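 Readout: treated/vehicle-control ratio of the measured endpoint (tumor size or survival) in transplanted-tumor mice.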

[1] = dose: 150.0 mg/kg/injection, schedule: Q04DX004 (sc), vehicle: saline with Tween-80
[2] = dose: 600.0 mg/kg/injection, schedule: Q04DX004 (sc), vehicle: saline with Tween-80
[3] = dose: 150.0 mg/kg/injection, schedule: Q04DX004 (sc), vehicle: Klucel (hydroxypropylcellulose) (HPC)
[4] = dose: 300.0 mg/kg/injection, schedule: Q04DX004 (sc), vehicle: Klucel (hydroxypropylcellulose) (HPC)
[5] = dose: 600.0 mg/kg/injection, schedule: Q04DX004 (sc), vehicle: Klucel (hydroxypropylcellulose) (HPC)
[6] = dose: 50.0 mg/kg/injection, schedule: Q01DX010 (sc), vehicle: saline

Q: What does the source list for `COC(=O)C(N)Cc1ccc(O)c(O)c1` (stereo not drawn)?
A: T/C (dose: 225.0 mg/kg/injection, schedule: Q04DX004 (sc), vehicle: saline): 74 % of control; T/C (dose: 450.0 mg/kg/injection, schedule: Q04DX004 (sc), vehicle: saline): 104 % of control; T/C (dose: 900.0 mg/kg/injection, schedule: Q04DX004 (sc), vehicle: saline): 77 % of control; T/C (dose: 1800.0 mg/kg/injection, schedule: Q04DX004 (sc), vehicle: saline): 55 % of control

Q: Which results are given for `CCN(CC)CCNc1ccc(C)c2sc3ccc(O)cc3c(=O)c12`?
A: T/C (dose: 75.0 mg/kg/injection, schedule: Q04DX004 (sc), vehicle: saline with Tween-80): 53 % of control; T/C [1]: 74 % of control; T/C [2]: 103 % of control; T/C (dose: 1200.0 mg/kg/injection, schedule: Q04DX004 (sc), vehicle: saline with Tween-80): 41 % of control; T/C (dose: 2400.0 mg/kg/injection, schedule: Q04DX004 (sc), vehicle: saline with Tween-80): 58 % of control

Q: How did the T/C (dose: 100.0 mg/kg/injection, schedule: Q04DX004 (sc), vehicle: suspension in saline) turn out when `O=CC(S)CO` (stereo not drawn) was run?
A: 92 % of control

Q: And the T/C (dose: 200.0 mg/kg/injection, schedule: Q04DX004 (sc), vehicle: suspension in saline)?
A: 69 % of control

Q: What about the T/C (dose: 400.0 mg/kg/injection, schedule: Q04DX004 (sc), vehicle: suspension in saline) of the same molecule?
A: 101 % of control

Q: And the T/C (dose: 800.0 mg/kg/injection, schedule: Q04DX004 (sc), vehicle: suspension in saline)?
A: 72 % of control

Q: What does the source list for `CC12CC(C(=O)O)C3(O)CC(C)(C1)CC(C)(C2)C3` (stereo not drawn) (tested in a mixture with another compound)?
A: T/C [3]: 48 % of control; T/C [4]: 54 % of control; T/C [5]: 66 % of control; T/C (dose: 1200.0 mg/kg/injection, schedule: Q04DX004 (sc), vehicle: Klucel (hydroxypropylcellulose) (HPC)): 110 % of control

Q: Which T/C (dose: 50.0 mg/kg/injection, schedule: Q01DX010 (sc), vehicle: saline with Tween-80) does the source give for `CO[C@H]1C[C@@H]2CC[C@@H](C)[C@@](O)(O2)C(=O)C(=O)N2CCCC[C@H]2C(=O)O[C@H]([C@H](C)C[C@@H]2CC[C@@H](O)[C@H](OC)C2)CC(=O)[C@H](C)C=C(C)[C@@H](O)[C@@H](OC)C(=O)[C@H](C)C[C@H](C)/C=C/C=C/C=C1C` here?
A: 28 % of control

Q: `Ic1ncnc2c1ncn2C1CCCO1` (stereo not drawn) was tested. Which T/C [4] did it give?
A: 55 % of control

Q: And the T/C [5]?
A: 112 % of control

Q: And the T/C (dose: 2400.0 mg/kg/injection, schedule: Q04DX004 (sc), vehicle: Klucel (hydroxypropylcellulose) (HPC))?
A: 72 % of control

Q: Which results are given for `CCCCCCCCCCCCCCCCCCOCC(COP(=O)([O-])OCC[N+](C)(C)C)OC` (stereo not drawn)?
A: T/C (dose: 37.5 mg/kg/injection, schedule: Q04DX004 (sc), vehicle: saline): 98 % of control; T/C (dose: 75.0 mg/kg/injection, schedule: Q04DX004 (sc), vehicle: saline): 77 % of control; T/C (dose: 150.0 mg/kg/injection, schedule: Q04DX004 (sc), vehicle: saline): 50 % of control

Q: Which results are given for `COC(=O)NC1C(C)OC(OC2C/C=C(/C)C3C=CC4C(OC5CC(OC6CCC(OC7CC(O)C(OC8CCC(O)C(C)O8)C(C)O7)C(C)O6)C(OC(C)=O)C(C)O5)C(C)CC(C)C4C3(C)/C(O)=C3/C(=O)OC4(CC(C=O)=CC(O)C4/C=C\2C)C3=O)CC1(C)[N+](=O)[O-]` (stereo not drawn)?
A: T/C (dose: 12.5 mg/kg/injection, schedule: Q04DX004 (sc), vehicle: other): 92 % of control; T/C (dose: 25.0 mg/kg/injection, schedule: Q04DX004 (sc), vehicle: other): 103 % of control; T/C (dose: 50.0 mg/kg/injection, schedule: Q04DX004 (sc), vehicle: other): 51 % of control

Q: Which results are given for `NNC(=S)N/N=C/c1ccccn1`?
A: T/C (dose: 15.0 mg/kg/injection, schedule: Q04DX004 (sc), vehicle: saline with Tween-80): 100 % of control; T/C (dose: 30.0 mg/kg/injection, schedule: Q04DX004 (sc), vehicle: saline with Tween-80): 76 % of control; T/C (dose: 60.0 mg/kg/injection, schedule: Q04DX004 (sc), vehicle: saline with Tween-80): 86 % of control

Q: How did the T/C (dose: 4.69 mg/kg/injection, schedule: Q04DX004 (sc), vehicle: saline) turn out when `O=c1[nH]c(=O)n(C2OC(CO)C(O)C2O)cc1F` (stereo not drawn) was run?
A: 34 % of control

Q: How did the T/C (dose: 400.0 mg/kg/injection, schedule: Q01DX010 (sc), vehicle: saline) turn out when `CN1c2c(nc(N)[nH]c2=O)NCC1CCNc1ccc(C(=O)NC(CCC(=O)O)C(=O)O)cc1` (stereo not drawn) was run?
A: 33 % of control

Q: What about the T/C (dose: 800.0 mg/kg/injection, schedule: Q01DX010 (sc), vehicle: saline) of the same molecule?
A: 51 % of control

Q: Which results are given for `C/C=C(\C)c1cc(=O)c2c(C)cc3c(c2o1)C(=O)c1c(O)c(C2CC(C)(N(C)C)C(O)C(C)O2)cc(C2CC(N(C)C)C(O)C(C)O2)c1C3=O` (stereo not drawn)?
A: T/C (dose: 0.5 mg/kg/injection, schedule: Q04DX004 (sc), vehicle: saline): 78 % of control; T/C (dose: 2.0 mg/kg/injection, schedule: Q04DX004 (sc), vehicle: saline): 112 % of control; T/C (dose: 4.0 mg/kg/injection, schedule: Q04DX004 (sc), vehicle: saline): 82 % of control; T/C (dose: 4.0 mg/kg/injection, schedule: Q04DX004 (sc), vehicle: suspension in saline): 104 % of control; T/C (dose: 8.0 mg/kg/injection, schedule: Q04DX004 (sc), vehicle: suspension in saline): 64 % of control; T/C (dose: 16.0 mg/kg/injection, schedule: Q04DX004 (sc), vehicle: suspension in saline): 90 % of control

Q: How did the T/C [3] turn out when `O=C(CC(=O)C(F)(F)F)c1csc2ccccc12` was run?
A: 116 % of control

Q: What about the T/C [4] of the same molecule?
A: 73 % of control

Q: And the T/C [5]?
A: 87 % of control

Q: `S=c1[nH]cc2cnccn12` was tested. Which T/C (dose: 450.0 mg/kg/injection, schedule: Q04DX004 (sc), vehicle: saline with Tween-80) did it give?
A: 97 % of control

Q: And the T/C (dose: 900.0 mg/kg/injection, schedule: Q04DX004 (sc), vehicle: saline with Tween-80)?
A: 107 % of control

Q: What about the T/C (dose: 1800.0 mg/kg/injection, schedule: Q04DX004 (sc), vehicle: saline with Tween-80) of the same molecule?
A: 117 % of control

Q: What does the source list for `Nc1nc(F)nc2c1ncn2C1OC(COP(=O)(O)O)C(O)C1O` (stereo not drawn)?
A: T/C [6]: 91 % of control; T/C (dose: 100.0 mg/kg/injection, schedule: Q01DX010 (sc), vehicle: saline): 84 % of control; T/C (dose: 200.0 mg/kg/injection, schedule: Q01DX010 (sc), vehicle: saline): 22 % of control

Q: For `CC[C@]1(O)C[C@H]2CN(CCc3c([nH]c4ccccc34)[C@@](C(=O)OC)(c3cc4c(cc3OC)N(C)[C@H]3[C@@](O)(C(=O)OC)[C@H](OC(C)=O)[C@]5(CC)C=CCN6CC[C@]43[C@@H]65)C2)C1`, which T/C (dose: 0.25 mg/kg/injection, schedule: Q01DX010 (sc), vehicle: saline) is on record?
A: 76 % of control

Q: What about the T/C (dose: 0.5 mg/kg/injection, schedule: Q01DX010 (sc), vehicle: saline) of the same molecule?
A: 88 % of control

Q: What about the T/C (dose: 1.0 mg/kg/injection, schedule: Q01DX010 (sc), vehicle: saline) of the same molecule?
A: 60 % of control

Q: Which T/C [6] does the source give for `C[CH2][Ge]1([CH2]C)[CH2]CC2(CCN(CCCN(C)C)C2)C[CH2]1` here?
A: 99 % of control

Q: Which results are given for `CC(C)NCC(O)COc1ccc(O)c(O)c1` (stereo not drawn)?
A: T/C (dose: 3.0 mg/kg/injection, schedule: Q04DX004 (sc), vehicle: saline): 107 % of control; T/C (dose: 6.0 mg/kg/injection, schedule: Q04DX004 (sc), vehicle: saline): 103 % of control; T/C (dose: 12.0 mg/kg/injection, schedule: Q04DX004 (sc), vehicle: saline): 164 % of control

Q: With `CN=S(=O)(OCCCCCOS(=O)(=NC)c1ccccc1)c1ccccc1` (stereo not drawn) as the molecule, how does the T/C [1] read?
A: 66 % of control

Q: And the T/C (dose: 300.0 mg/kg/injection, schedule: Q04DX004 (sc), vehicle: saline with Tween-80)?
A: 60 % of control

Q: What about the T/C [2] of the same molecule?
A: 27 % of control

Q: Which T/C [3] does the source give for `COc1ccc2[nH]c3ccc4cc[n+](CCN5CCC(C6CCN(CC[n+]7ccc8ccc9[nH]c%10ccc(OC)cc%10c9c8c7)CC6)CC5)cc4c3c2c1` here?
A: 194 % of control

Q: What about the T/C [4] of the same molecule?
A: 189 % of control

Q: What about the T/C [5] of the same molecule?
A: 83 % of control

Q: For `CN=S(=O)(OCCCCCOS(=O)(=NC)c1ccc(C)cc1)c1ccc(C)cc1` (stereo not drawn), which T/C [1] is on record?
A: 81 % of control

Q: With `O=c1[nH]cnc2[nH]ncc12` as the molecule, how does the T/C (dose: 150.0 mg/kg/injection, schedule: Q04DX004 (sc), vehicle: suspension in saline) read?
A: 33 % of control

Q: What about the T/C (dose: 300.0 mg/kg/injection, schedule: Q04DX004 (sc), vehicle: suspension in saline) of the same molecule?
A: 31 % of control

Q: And the T/C (dose: 600.0 mg/kg/injection, schedule: Q04DX004 (sc), vehicle: suspension in saline)?
A: 21 % of control

Q: And the T/C (dose: 1200.0 mg/kg/injection, schedule: Q04DX004 (sc), vehicle: suspension in saline)?
A: 31 % of control

Q: What does the source list for `CCCCCCCCCCC(OC(C)=O)C1CCC(C2CCC(C(O)CCCCCCCCCCCCC3C=C(C)OC3=O)O2)O1` (stereo not drawn)?
A: T/C (dose: 25.0 mg/kg/injection, schedule: Q04DX004 (sc), vehicle: water): 119 % of control; T/C (dose: 50.0 mg/kg/injection, schedule: Q04DX004 (sc), vehicle: water): 92 % of control

Q: For `CNc1n[n+](-c2ccccc2)no1`, which T/C (dose: 37.5 mg/kg/injection, schedule: Q04DX004 (sc), vehicle: water) is on record?
A: 117 % of control

Q: What about the T/C (dose: 75.0 mg/kg/injection, schedule: Q04DX004 (sc), vehicle: water) of the same molecule?
A: 115 % of control

Q: Which T/C (dose: 100.0 mg/kg/injection, schedule: Q04DX004 (sc), vehicle: saline) does the source give for `CN1CCN(c2ccc3nc(-c4ccc5nc(-c6ccc(O)cc6)[nH]c5c4)[nH]c3c2)CC1` here?
A: 35 % of control

Q: And the T/C (dose: 200.0 mg/kg/injection, schedule: Q04DX004 (sc), vehicle: saline)?
A: 61 % of control

Q: What about the T/C (dose: 800.0 mg/kg/injection, schedule: Q04DX004 (sc), vehicle: saline) of the same molecule?
A: 56 % of control
